Experimental findings from patent US20240218022A1, “ANTI-VISTA MACROCYCLIC PEPTIDES AND COMPOSITIONS” (BRISTOL-MYERS SQUIBB COMPANY, priority 2022, published 2024) are described below.

Starred links: 1 amine or outer side, 2 acyl side, 3 side chain; linkers in the order of their positions; H or OH if unused. Positions of bridges follow the written chain, without caps; N, C: chain ends. Non-standard residues stand in square brackets, D forms with d. Residues, ends and D or L forms follow the SMILES beside them. Phe(3-Me) = Cc1cccc(C[C@H](N)C(=O)O)c1; 2Nal = N[C@@H](Cc1ccc2ccccc2c1)C(=O)O; βAsp = O=C(O)[C@H](CC(=O)[*:2])N[*:1]; Cit = NC(=O)NCCC[C@H](N)C(=O)O; NMeL = CN[C@@H](CC(C)C)C(=O)O; Ahp(2) = CCCCC[C@H](N)C(=O)O; NMeNle = CCCC[C@H](NC)C(=O)O; Tle = CC(C)(C)[C@H](N)C(=O)O; NHexGly = CCCCCCNCC(=O)O; Nle = CCCC[C@H](N)C(=O)O; Aun = NCCCCCCCCCCC(=O)O; AEEA = NCCOCCOCC(=O)O

In the experiment the target is T1, mouse VISTA (mVISTA) (Mus musculus, UniProt Q9D659).
T1 construct: expressed in transfected cells; host or cells: Human embryonic kidney 293T cells
T1 sequence (Q9D659 33-308): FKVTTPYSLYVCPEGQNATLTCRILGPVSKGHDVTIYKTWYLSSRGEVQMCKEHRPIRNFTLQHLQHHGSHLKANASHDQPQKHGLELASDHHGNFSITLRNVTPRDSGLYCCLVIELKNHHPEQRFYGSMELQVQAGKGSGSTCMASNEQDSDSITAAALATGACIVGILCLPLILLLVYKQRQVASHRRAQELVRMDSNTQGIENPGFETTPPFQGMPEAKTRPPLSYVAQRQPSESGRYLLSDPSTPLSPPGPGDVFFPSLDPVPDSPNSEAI
Nature of the experiment: Cell-Based Binding High-Content Assay For mVISTA (HC CBA mVISTA). The conditions noted are these: cell-based binding high-content assay, mVISTA; read-out: HC CBA miPr ISTA IC50. Put shortly:
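mVISTA-293T, 4,000 cells/well; cpd ± washout step; biotin-peptide 2 nM final, 30 min RT; SA-Alexa 647 30 min; formaldehyde/Hoechst fix; HCS imaging; 4PL IC50.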

Usually IC50 stands for the midpoint of a concentration-inhibition curve. As to `CCCCCCN1CC(=O)N[C@@H](Cc2ccc(O)cc2)C(=O)N[C@@H](CCCCC)C(=O)NCC(=O)N[C@@H](CCCNC(=N)N)C(=O)N[C@@H](CC(C)C)C(=O)N[C@@H](CCCCC)C(=O)N2CCC[C@H]2C(=O)N[C@@H](C(C)C)C(=O)N[C@@H](CO)C(=O)N[C@H](C(=O)NCC(=O)NCCOCCOCC(=O)N[C@@H](CC(=O)O)C(=O)NCCOCCOCC(=O)NCCCCCCCCCCC(=O)O)CSCC(=O)N[C@@H](Cc2ccccc2)C(=O)N[C@@H](Cc2ccc(O)cc2)C(=O)N[C@@H](CC(=O)O)C1=O` [compound 2013] ({CH2CO}-FYD[NHexGly]Y[Ahp(2)]GRL[Ahp(2)]PVSCG[AEEA]D[AEEA][Aun]-OH; thioether N-14), the half-inhibitory concentration (IC50) came out at 25.5 nM.

For `CCCCCCN1CC(=O)N[C@@H](Cc2ccc(O)cc2)C(=O)N[C@@H](CCCC)C(=O)NCC(=O)N[C@@H](CCCNC(=N)N)C(=O)N[C@@H](CC(C)C)C(=O)N[C@@H](CCCCC)C(=O)N2CCC[C@H]2C(=O)N[C@@H](C(C)C)C(=O)N[C@@H](CC(=O)O)C(=O)N[C@H](C(=O)NCC(=O)NCCOCCOCC(=O)N[C@@H](CC(=O)O)C(=O)NCCOCCOCC(=O)NCCCCCCCCCCC(=O)O)CSCC(=O)N[C@@H](Cc2cccc(C)c2)C(=O)N[C@@H](Cc2ccc(O)cc2)C(=O)N[C@@H](CC(=O)O)C1=O` [compound 2014] ({CH2CO}-[Phe(3-Me)]YD[NHexGly]Y[Nle]GRL[Ahp(2)]PVDCG[AEEA]D[AEEA][Aun]-OH; thioether N-14), the half-inhibitory concentration (IC50) stood at 16.4 nM.

For the compound `CCCCCCN1CC(=O)N[C@@H](Cc2ccc(O)cc2)C(=O)N[C@@H](CCCC)C(=O)N[C@@H](CC(N)=O)C(=O)N[C@@H](CCCNC(N)=O)C(=O)N[C@@H](CC(C)C)C(=O)N[C@@H](CCCCC)C(=O)N2CCC[C@H]2C(=O)N[C@@H](C(C)C)C(=O)N[C@@H](CO)C(=O)N[C@H](C(=O)NCC(=O)NCCOCCOCC(=O)N[C@@H](CC(=O)O)C(=O)NCCOCCOCC(=O)NCCCCCCCCCCC(=O)O)CSCC(=O)N[C@@H](Cc2ccc3ccccc3c2)C(=O)N[C@@H](Cc2ccc(O)cc2)C(=O)N[C@@H](CC(=O)O)C1=O` [compound 2016] ({CH2CO}-[2Nal]YD[NHexGly]Y[Nle]N[Cit]L[Ahp(2)]PVSCG[AEEA]D[AEEA][Aun]-OH; thioether N-14), the 50% inhibitory concentration (IC50) is 19 nM.

For the compound `CCCCCCN1CC(=O)N[C@@H](Cc2ccc(O)cc2)C(=O)N[C@@H](CCCC)C(=O)N[C@@H](CC(=O)O)C(=O)N[C@@H](CCCNC(N)=O)C(=O)N[C@@H](CC(C)C)C(=O)N[C@@H](CCCCC)C(=O)N2CCC[C@H]2C(=O)N[C@@H](C(C)C)C(=O)N[C@@H](CC(N)=O)C(=O)N[C@H](C(=O)NCC(=O)NCCOCCOCC(=O)N[C@@H](CC(=O)O)C(=O)NCCOCCOCC(=O)NCCCCCCCCCCC(=O)O)CSCC(=O)N[C@@H](Cc2ccccc2)C(=O)N[C@@H](Cc2ccc(O)cc2)C(=O)N[C@@H](CC(=O)O)C1=O` [compound 2018] ({CH2CO}-FYD[NHexGly]Y[Nle]D[Cit]L[Ahp(2)]PVNCG[AEEA]D[AEEA][Aun]-OH; thioether N-14), the IC50 worked out at 20.4 nM.

For `CCCCCCN1CC(=O)N[C@@H](Cc2ccc(O)cc2)C(=O)N[C@@H](CCCC)C(=O)NCC(=O)N[C@@H](CCCNC(N)=O)C(=O)N[C@@H](CC(C)C)C(=O)N[C@@H](CCCCC)C(=O)N2CCC[C@H]2C(=O)N[C@@H](C(C)C)C(=O)N[C@@H](CC(=O)O)C(=O)N[C@H](C(=O)NCC(=O)NCCOCCOCC(=O)N[C@@H](CC(=O)O)C(=O)NCCOCCOCC(=O)NCCCCCCCCCCC(=O)O)CSCC(=O)N[C@@H](Cc2cccc(C)c2)C(=O)N[C@@H](Cc2ccc(O)cc2)C(=O)N[C@@H](CC(=O)O)C1=O` [compound 2019] ({CH2CO}-[Phe(3-Me)]YD[NHexGly]Y[Nle]G[Cit]L[Ahp(2)]PVDCG[AEEA]D[AEEA][Aun]-OH; thioether N-14), the IC50 turned out to be 14.4 nM.

As to `CCCCCCN1CC(=O)N[C@@H](Cc2ccc(O)cc2)C(=O)N[C@@H](CCCC)C(=O)N[C@@H](CC(N)=O)C(=O)N[C@@H](CCCNC(=N)N)C(=O)N(C)[C@@H](CCCC)C(=O)N[C@@H](CCCCC)C(=O)N2CCC[C@H]2C(=O)N[C@@H](C(C)(C)C)C(=O)N[C@@H](CO)C(=O)N[C@H](C(=O)N[C@@H](CC(=O)NCCOCCOCC(=O)N[C@@H](CC(=O)O)C(=O)NCCOCCOCC(=O)NCCCCCCCCCCC(=O)O)C(=O)O)CSCC(=O)N[C@@H](Cc2ccccc2)C(=O)N[C@@H](Cc2ccc(O)cc2)C(=O)N[C@@H](CC(=O)O)C1=O` [compound 2021] ({CH2CO}-FYD[NHexGly]Y[Nle]NR[NMeNle][Ahp(2)]P[Tle]SC[βAsp][AEEA]D[AEEA][Aun]-OH; thioether N-14), the IC50 worked out at 19.5 nM.

For `CCCCCCN1CC(=O)N[C@@H](Cc2ccc(O)cc2)C(=O)N[C@@H](CCCC)C(=O)N[C@@H](CC(N)=O)C(=O)N[C@@H](CCCNC(=N)N)C(=O)N(C)[C@@H](CCCC)C(=O)N[C@@H](CCCCC)C(=O)N2CCC[C@H]2C(=O)N[C@@H](C(C)(C)C)C(=O)N[C@@H](CO)C(=O)N[C@H](C(=O)N[C@@H](CC(=O)NCCOCCOCC(=O)N[C@@H](CC(=O)O)C(=O)NCCOCCOCC(=O)NCCCCCCCCCCC(=O)O)C(=O)O)CSCC(=O)N[C@@H](Cc2ccccc2)C(=O)N[C@@H](Cc2c[nH]c3ccccc23)C(=O)N[C@@H](CC(=O)O)C1=O` [compound 2022] ({CH2CO}-FWD[NHexGly]Y[Nle]NR[NMeNle][Ahp(2)]P[Tle]SC[βAsp][AEEA]D[AEEA][Aun]-OH; thioether N-14), the IC50 turned out to be 22.7 nM.

As for `CCCCCCN1CC(=O)N[C@@H](Cc2ccc(O)cc2)C(=O)N[C@@H](CCCC)C(=O)N[C@@H](CC(N)=O)C(=O)N[C@@H](CCCNC(=N)N)C(=O)N(C)[C@@H](CCCC)C(=O)N[C@@H](CCCCC)C(=O)N2CCC[C@H]2C(=O)N[C@@H](C(C)(C)C)C(=O)N[C@@H](CO)C(=O)N[C@H](C(=O)N[C@@H](CC(=O)NCCOCCOCC(=O)N[C@@H](CC(=O)O)C(=O)NCCOCCOCC(=O)NCCCCCCCCCCC(=O)O)C(=O)O)CSCC(=O)N[C@@H](Cc2ccc3ccccc3c2)C(=O)N[C@@H](Cc2ccc(O)cc2)C(=O)N[C@@H](CC(=O)O)C1=O` [compound 2023] ({CH2CO}-[2Nal]YD[NHexGly]Y[Nle]NR[NMeNle][Ahp(2)]P[Tle]SC[βAsp][AEEA]D[AEEA][Aun]-OH; thioether N-14), the IC50 was found to be 41.2 nM.

As for `CCCCCCN1CC(=O)N[C@@H](Cc2ccc(O)cc2)C(=O)N[C@@H](CCCC)C(=O)N[C@@H](CC(N)=O)C(=O)N[C@@H](CCCNC(=N)N)C(=O)N(C)[C@@H](CCCC)C(=O)N[C@@H](CCCCC)C(=O)N2CCC[C@H]2C(=O)N[C@@H](C(C)(C)C)C(=O)N[C@@H](CO)C(=O)N[C@H](C(=O)N[C@@H](CC(=O)NCCOCCOCC(=O)N[C@@H](CC(=O)O)C(=O)NCCOCCOCC(=O)NCCCCCCCCCCC(=O)O)C(=O)O)CSCC(=O)N[C@@H](Cc2cccc(C)c2)C(=O)N[C@@H](Cc2c[nH]c3ccccc23)C(=O)N[C@@H](CC(=O)O)C1=O` [compound 2024] ({CH2CO}-[Phe(3-Me)]WD[NHexGly]Y[Nle]NR[NMeNle][Ahp(2)]P[Tle]SC[βAsp][AEEA]D[AEEA][Aun]-OH; thioether N-14), the IC50 came out at 40.3 nM.

With `CCCCCCN1CC(=O)N[C@@H](Cc2ccc(O)cc2)C(=O)N[C@@H](CC(C)C)C(=O)N[C@@H](CC(N)=O)C(=O)N[C@@H](CCCNC(=N)N)C(=O)N(C)[C@@H](CC(C)C)C(=O)N[C@@H](CCCCC)C(=O)N2CCC[C@H]2C(=O)N[C@@H](C(C)(C)C)C(=O)N[C@@H](CC(=O)O)C(=O)N[C@H](C(=O)N[C@@H](CC(=O)NCCOCCOCC(=O)N[C@@H](CC(=O)O)C(=O)NCCOCCOCC(=O)NCCCCCCCCCCC(=O)O)C(=O)O)CSCC(=O)N[C@@H](Cc2ccccc2)C(=O)N[C@@H](Cc2ccc(O)cc2)C(=O)N[C@@H](CC(=O)O)C1=O` [compound 2026] ({CH2CO}-FYD[NHexGly]YLNR[NMeL][Ahp(2)]P[Tle]DC[βAsp][AEEA]D[AEEA][Aun]-OH; thioether N-14), the half-maximal inhibitory concentration (IC50) was found to be 17.5 nM.

Take `CCCCCCN1CC(=O)N[C@@H](Cc2ccc(O)cc2)C(=O)N[C@@H](CC(C)C)C(=O)N[C@@H](CC(N)=O)C(=O)N[C@@H](CCCNC(=N)N)C(=O)N(C)[C@@H](CCCC)C(=O)N[C@@H](CCCCC)C(=O)N2CCC[C@H]2C(=O)N[C@@H](C(C)(C)C)C(=O)N[C@@H](CC(=O)O)C(=O)N[C@H](C(=O)N[C@@H](CC(=O)NCCOCCOCC(=O)N[C@@H](CC(=O)O)C(=O)NCCOCCOCC(=O)NCCCCCCCCCCC(=O)O)C(=O)O)CSCC(=O)N[C@@H](Cc2ccccc2)C(=O)N[C@@H](Cc2c[nH]c3ccccc23)C(=O)N[C@@H](CC(=O)O)C1=O` [compound 2027] ({CH2CO}-FWD[NHexGly]YLNR[NMeNle][Ahp(2)]P[Tle]DC[βAsp][AEEA]D[AEEA][Aun]-OH; thioether N-14): the concentration for half-maximal inhibition (IC50) was 27.5 nM.

On to `CCCCCCN1CC(=O)N[C@@H](Cc2ccc(O)cc2)C(=O)N[C@@H](CC(C)C)C(=O)N[C@@H](CC(N)=O)C(=O)N[C@@H](CCCNC(=N)N)C(=O)N(C)[C@@H](CCCC)C(=O)N[C@@H](CCCCC)C(=O)N2CCC[C@H]2C(=O)N[C@@H](C(C)(C)C)C(=O)N[C@@H](CC(=O)O)C(=O)N[C@H](C(=O)N[C@@H](CC(=O)NCCOCCOCC(=O)N[C@@H](CC(=O)O)C(=O)NCCOCCOCC(=O)NCCCCCCCCCCC(=O)O)C(=O)O)CSCC(=O)N[C@@H](Cc2ccccc2)C(=O)N[C@@H](Cc2ccc(O)cc2)C(=O)N[C@@H](CC(=O)O)C1=O` [compound 2029] ({CH2CO}-FYD[NHexGly]YLNR[NMeNle][Ahp(2)]P[Tle]DC[βAsp][AEEA]D[AEEA][Aun]-OH; thioether N-14), for which the concentration for half-maximal inhibition (IC50) is 17.5 nM.
